Results from patent US9611222B2, “Pyridine compounds and the uses thereof” (Purdue Pharma L.P., priority 2010, dated 2017).

Target: human Nav1.7 (Homo sapiens (Human), UniProt Q15858)
Experiment: FLIPR or FLIPR TETRA sodium dye assay with KCl and test article pre-incubation
Format: cell-based
Conditions: sodium channel blocking activity, recombinant HEK293 cells, CoroNa Green dye, veratridine + scorpion venom; read-out: Nav1.7 IC50 (μM) ± SEM

Chain of human Nav1.7 (Q15858 with tags, fused parts or gaps limits assumed): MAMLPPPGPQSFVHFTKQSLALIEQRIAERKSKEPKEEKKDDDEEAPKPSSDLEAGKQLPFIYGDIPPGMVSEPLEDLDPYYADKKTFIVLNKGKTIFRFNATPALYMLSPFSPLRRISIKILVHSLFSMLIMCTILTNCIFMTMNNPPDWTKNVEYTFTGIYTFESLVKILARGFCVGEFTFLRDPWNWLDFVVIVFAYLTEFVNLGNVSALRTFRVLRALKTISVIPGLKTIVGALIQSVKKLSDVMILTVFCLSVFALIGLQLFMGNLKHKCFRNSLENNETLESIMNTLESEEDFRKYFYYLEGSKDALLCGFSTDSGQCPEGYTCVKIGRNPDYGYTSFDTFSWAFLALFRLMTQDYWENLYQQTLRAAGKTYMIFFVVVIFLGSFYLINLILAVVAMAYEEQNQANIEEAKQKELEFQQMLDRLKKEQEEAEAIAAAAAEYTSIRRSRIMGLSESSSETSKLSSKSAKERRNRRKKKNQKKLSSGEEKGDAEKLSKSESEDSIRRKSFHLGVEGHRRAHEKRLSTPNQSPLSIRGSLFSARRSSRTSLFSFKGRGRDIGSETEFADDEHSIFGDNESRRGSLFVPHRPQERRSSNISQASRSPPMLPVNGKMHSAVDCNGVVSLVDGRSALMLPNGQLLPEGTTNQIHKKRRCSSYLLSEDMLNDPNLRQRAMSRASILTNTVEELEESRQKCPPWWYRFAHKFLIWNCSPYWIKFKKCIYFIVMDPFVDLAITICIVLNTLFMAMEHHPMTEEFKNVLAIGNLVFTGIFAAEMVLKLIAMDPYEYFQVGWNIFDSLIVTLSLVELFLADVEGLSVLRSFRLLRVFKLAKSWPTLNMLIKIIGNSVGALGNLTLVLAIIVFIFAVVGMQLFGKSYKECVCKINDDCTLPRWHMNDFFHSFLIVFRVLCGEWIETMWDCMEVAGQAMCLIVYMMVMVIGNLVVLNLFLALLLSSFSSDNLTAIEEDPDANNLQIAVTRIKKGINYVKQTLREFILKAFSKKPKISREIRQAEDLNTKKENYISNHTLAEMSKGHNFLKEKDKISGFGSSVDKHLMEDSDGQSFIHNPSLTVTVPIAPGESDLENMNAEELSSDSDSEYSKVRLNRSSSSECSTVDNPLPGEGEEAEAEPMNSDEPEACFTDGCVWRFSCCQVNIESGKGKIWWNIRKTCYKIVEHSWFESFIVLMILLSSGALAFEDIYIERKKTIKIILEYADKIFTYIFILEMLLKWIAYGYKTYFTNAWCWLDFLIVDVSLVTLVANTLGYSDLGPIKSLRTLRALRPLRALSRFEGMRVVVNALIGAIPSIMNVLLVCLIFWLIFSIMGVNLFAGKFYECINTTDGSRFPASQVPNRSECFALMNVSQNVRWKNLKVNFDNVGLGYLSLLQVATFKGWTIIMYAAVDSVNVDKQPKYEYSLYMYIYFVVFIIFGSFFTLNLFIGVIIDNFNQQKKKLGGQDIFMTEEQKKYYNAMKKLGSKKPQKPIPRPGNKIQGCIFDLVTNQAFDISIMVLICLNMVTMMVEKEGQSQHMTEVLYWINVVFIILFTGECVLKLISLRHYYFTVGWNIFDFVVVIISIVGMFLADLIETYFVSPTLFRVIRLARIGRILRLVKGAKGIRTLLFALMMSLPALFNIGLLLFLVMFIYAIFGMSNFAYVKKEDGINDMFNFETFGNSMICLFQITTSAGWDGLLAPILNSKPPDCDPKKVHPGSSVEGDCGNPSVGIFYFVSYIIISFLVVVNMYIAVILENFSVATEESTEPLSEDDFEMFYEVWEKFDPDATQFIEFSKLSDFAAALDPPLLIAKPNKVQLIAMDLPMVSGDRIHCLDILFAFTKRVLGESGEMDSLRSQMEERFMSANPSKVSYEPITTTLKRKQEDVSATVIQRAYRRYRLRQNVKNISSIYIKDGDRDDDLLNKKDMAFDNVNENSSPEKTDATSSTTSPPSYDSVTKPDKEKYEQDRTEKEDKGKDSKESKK

Molecule `Cc1cc(-c2nnn(CC(N)=O)n2)cc(-c2ccc(Oc3ccc(F)cc3)cc2)n1` [compound 108, 2-(5-(2-(4-(4-fluorophenoxy)phenyl)-6-methylpyridin-4-yl)-2H-tetrazol-2-yl) acetamide] has an IC50 of 0.13 ± 0.01 µM.
